Measured values as given in patent US7811797B2, “α-isomaltosylglucosaccharide-forming enzyme, process and uses of the same” (Kabushiki Kaisha Hayashibara Seibutsu Kagaku Kenkyujo, priority 2000, dated 2010).
Read-outs that look alike come from different tables or passages of the source.

Key:
[1] = tested on: α-isomaltosylglucosaccharide-forming enzyme; test: Influence of metal ions on the activity of α-isomaltosylglucosaccharide-forming enzyme (Strain N75); assay type: biochemical, Bacillus globisporus N75; details: for influence on the enzyme activity, in words: 1 mM; for Relative activity (%): 1 mM of each metal-ion
Method: (§1) One unit activity of the α-isomaltosylglucosaccharide-forming enzyme is defined as the enzyme amount that forms one micromole of maltose per minute under the above enzymatic reaction conditions. Throughout the specification, the enzymatic activity of the α-isomaltosylglucosaccharide-forming enzyme means the unit(s) assayed as above.
(§2) The influence of metal ions on the activity of α-isomaltosylglucosaccharide-forming enzyme was examined in the presence of 1 mM of each metal-ion according to the assay for the enzyme activity.

[2] = tested on: α-isomaltosyl-transferring enzyme; test: Influence of metal ions on the activity of α-isomaltosyl-transferring enzyme (Strain C9); assay type: biochemical, Bacillus globisporus C9; details: for influence on the enzyme activity, in words: 1 mM; for Relative activity (%): 1 mM of each metal-ion
Method: The α-isomaltosyl-transferring enzyme was assayed for enzymatic activity by dissolving panose in 100 mM acetate buffer (pH 6.0) to give a concentration of 2% (w/v) for a substrate solution, adding a 0.5 ml of an enzyme solution to 0.5 ml of the substrate solution, enzymatically reacting the mixture solution at 35° C. for 30 min, suspending the reaction mixture by boiling for 10 min, and quantifying glucose, among the cyclotetrasaccharide and glucose formed in the reaction mixture, by the glucose oxidase method. One unit activity of the α-isomaltosyl-transferring enzyme is defined as the enzyme amount that forms one micromole of glucose per minute under the above enzymatic reaction conditions. Throughout the specification, the enzymatic activity of the α-isomaltosyl-transferring enzyme means the unit(s) assayed as above. […]

[3] = tested on: α-isomaltosylglucosaccharide-forming enzyme; test: Influence of metal ions on the activity of α-isomaltosylglucosaccharide-forming enzyme (Strain A19); assay type: biochemical, Arthrobacter globiformis A19; details: for influence on the enzyme activity, in words: 1 mM; for Relative activity (%): 1 mM of each metal-ion
[4] = tested on: α-isomaltosyl-transferring enzyme; test: Influence of metal ions on the activity of α-isomaltosyl-transferring enzyme (Strain S1); assay type: biochemical, Arthrobacter ramosus S1; details: for Relative activity (%): 1 mM of each metal-ion
Method: (§3) The α-isomaltosyl-transferring enzyme was assayed for enzymatic activity by dissolving panose in 100 mM acetate buffer (pH 6.0) to give a concentration of 2% (w/v) for a substrate solution, adding a 0.5 ml of an enzyme solution to 0.5 ml of the substrate solution, enzymatically reacting the mixture solution at 35° C. for 30 min, suspending the reaction mixture by boiling for 10 min, and quantifying glucose, among the cyclotetrasaccharide and glucose formed in the reaction mixture, by the glucose oxidase method. One unit activity of the α-isomaltosyl-transferring enzyme is defined as the enzyme amount that forms one micromole of glucose per minute under the above enzymatic reaction conditions. Throughout the specification, the enzymatic activity of the α-isomaltosyl-transferring enzyme means the unit(s) assayed as above.
(§4) The influence of metal ions on the activity of α-isomaltosyl-transferring enzyme was examined in the presence of 1 mM of each metal-ion according to the assay for the enzyme activity.

[5] = tested on: α-isomaltosylglucosaccharide-forming enzyme; test: Influence of metal ions on the activity of α-isomaltosylglucosaccharide-forming enzyme (Strain C11); assay type: biochemical, Bacillus globisporus C11; details: for influence on the enzyme activity, in words: 1 mM; for Relative activity (%): 1 mM of each metal-ion
Method: as §1
The influence of metal ions on the activity of α-isomaltosylglucosaccharide forming enzyme was examined in the presence of 1 mM of each metal-ion according to the assay for the enzyme activity.

[6] = tested on: α-isomaltosylglucosaccharide-forming enzyme; test: Influence of metal ions on the activity of α-isomaltosylglucosaccharide-forming enzyme (Strain C9); assay type: biochemical, Bacillus globisporus C9; details: for Relative activity (%): 1 mM of each metal-ion
Method: as §1, §2

[7] = tested on: α-isomaltosyl-transferring enzyme; test: Influence of metal ions on the activity of α-isomaltosyl-transferring enzyme (Strain N75); assay type: biochemical, Bacillus globisporus N75; details: for influence on the enzyme activity, in words: 1 mM; for Relative activity (%): 1 mM of each metal-ion
Method: as §3, §4

[8] = tested on: α-isomaltosyl-transferring enzyme; assay type: biochemical, Bacillus globisporus C11
Method: as §3, §4

Compound	influence on the enzyme activity, in words [1]	Relative activity (%) [1]	influence on the enzyme activity, in words [2]	Relative activity (%) [2]	influence on the enzyme activity, in words [3]	Relative activity (%) [3]	Relative activity (%) [4]	influence on the enzyme activity, in words [5]	Relative activity (%) [5]	Relative activity (%) [6]	influence on the enzyme activity, in words [7]	Relative activity (%) [7]	Relative activity (%) [8]	influence on the enzyme activity, in words [8]	influence on the enzyme activity, in words ([4]; 1 mM)	influence on the enzyme activity, in words ([6]; 1 mM)	influence on the enzyme activity, in words ([8]; 1 mM)	Relative activity (%) ([8]; 1 mM of each metal-ion)
O=C(O)CN(CCN(CC(=O)O)CC(=O)O)CC(=O)O [EDTA, ethylenediaminetetraacetic acid, reference compound]	greatly inhibited	35%	not inhibited	104%	greatly inhibited	2%	91%	greatly inhibited	24%	20%	not inhibited	92%	98%	not inhibited				
[Hg+2] [Hg^2+]	greatly inhibited	1%	greatly inhibited	1%	greatly inhibited	0%	0.1%	greatly inhibited	4%	4%	greatly inhibited	0.5%			greatly inhibited	greatly inhibited	greatly inhibited	2%
[Pb+2] [Pb^2+]		86%		89%		43%	85%		101%	103%		69%						74%
[Sr+2] [Sr^2+]		85%		101%		102%	101%	also inhibited	83%	80%		91%						93%
[Zn+2] [Zn^2+]		82%		88%		56%	78%		91%	92%		75%						83%
